Reference: patent publication US20240294489A1 (Captor Therapeutics S.A., priority 2020, published 2024)
Read-outs that look alike come from different tables or passages of the source.

Legend:
Type in all cases: cell-based
GSPT1 = target: T1, GSPT1 (Homo sapiens, UniProt P15170+Q96SW2); assay: GSPT1 degradation assay, Hep3B cell line; settings: HEP3B cells, 24 h, read-out: % of GSPT1 protein reduction
T1 construct: GSPT1 degradation in the Hep3B cell line was investigated; endogenous in cells; host or cells: Hep3B
T1 sequence (P15170 whole entry): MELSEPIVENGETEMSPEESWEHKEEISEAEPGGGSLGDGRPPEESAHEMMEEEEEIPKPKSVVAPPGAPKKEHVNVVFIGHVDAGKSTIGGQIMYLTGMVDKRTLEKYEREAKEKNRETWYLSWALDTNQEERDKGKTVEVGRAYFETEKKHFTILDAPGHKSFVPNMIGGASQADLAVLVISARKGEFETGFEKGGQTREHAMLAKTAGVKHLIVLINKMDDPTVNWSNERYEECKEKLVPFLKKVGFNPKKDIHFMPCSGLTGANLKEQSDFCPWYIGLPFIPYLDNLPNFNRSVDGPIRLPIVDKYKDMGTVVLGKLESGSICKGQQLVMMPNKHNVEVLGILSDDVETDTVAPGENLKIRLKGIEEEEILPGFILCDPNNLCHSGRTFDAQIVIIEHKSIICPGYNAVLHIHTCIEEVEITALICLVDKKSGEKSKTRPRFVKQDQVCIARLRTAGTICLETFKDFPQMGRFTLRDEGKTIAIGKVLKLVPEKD
T1 sequence (Q96SW2 whole entry): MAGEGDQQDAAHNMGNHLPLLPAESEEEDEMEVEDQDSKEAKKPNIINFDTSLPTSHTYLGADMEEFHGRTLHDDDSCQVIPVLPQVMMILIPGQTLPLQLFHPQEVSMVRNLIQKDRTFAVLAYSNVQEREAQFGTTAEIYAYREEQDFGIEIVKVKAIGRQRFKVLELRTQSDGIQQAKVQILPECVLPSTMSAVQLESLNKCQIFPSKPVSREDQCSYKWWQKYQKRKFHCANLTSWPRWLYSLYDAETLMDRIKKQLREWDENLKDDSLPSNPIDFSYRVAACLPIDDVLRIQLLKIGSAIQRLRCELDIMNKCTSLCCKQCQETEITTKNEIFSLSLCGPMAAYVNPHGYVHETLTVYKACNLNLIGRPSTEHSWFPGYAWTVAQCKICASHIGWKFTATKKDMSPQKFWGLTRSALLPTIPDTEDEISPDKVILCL
T1 sequence (Q16531 whole entry partner): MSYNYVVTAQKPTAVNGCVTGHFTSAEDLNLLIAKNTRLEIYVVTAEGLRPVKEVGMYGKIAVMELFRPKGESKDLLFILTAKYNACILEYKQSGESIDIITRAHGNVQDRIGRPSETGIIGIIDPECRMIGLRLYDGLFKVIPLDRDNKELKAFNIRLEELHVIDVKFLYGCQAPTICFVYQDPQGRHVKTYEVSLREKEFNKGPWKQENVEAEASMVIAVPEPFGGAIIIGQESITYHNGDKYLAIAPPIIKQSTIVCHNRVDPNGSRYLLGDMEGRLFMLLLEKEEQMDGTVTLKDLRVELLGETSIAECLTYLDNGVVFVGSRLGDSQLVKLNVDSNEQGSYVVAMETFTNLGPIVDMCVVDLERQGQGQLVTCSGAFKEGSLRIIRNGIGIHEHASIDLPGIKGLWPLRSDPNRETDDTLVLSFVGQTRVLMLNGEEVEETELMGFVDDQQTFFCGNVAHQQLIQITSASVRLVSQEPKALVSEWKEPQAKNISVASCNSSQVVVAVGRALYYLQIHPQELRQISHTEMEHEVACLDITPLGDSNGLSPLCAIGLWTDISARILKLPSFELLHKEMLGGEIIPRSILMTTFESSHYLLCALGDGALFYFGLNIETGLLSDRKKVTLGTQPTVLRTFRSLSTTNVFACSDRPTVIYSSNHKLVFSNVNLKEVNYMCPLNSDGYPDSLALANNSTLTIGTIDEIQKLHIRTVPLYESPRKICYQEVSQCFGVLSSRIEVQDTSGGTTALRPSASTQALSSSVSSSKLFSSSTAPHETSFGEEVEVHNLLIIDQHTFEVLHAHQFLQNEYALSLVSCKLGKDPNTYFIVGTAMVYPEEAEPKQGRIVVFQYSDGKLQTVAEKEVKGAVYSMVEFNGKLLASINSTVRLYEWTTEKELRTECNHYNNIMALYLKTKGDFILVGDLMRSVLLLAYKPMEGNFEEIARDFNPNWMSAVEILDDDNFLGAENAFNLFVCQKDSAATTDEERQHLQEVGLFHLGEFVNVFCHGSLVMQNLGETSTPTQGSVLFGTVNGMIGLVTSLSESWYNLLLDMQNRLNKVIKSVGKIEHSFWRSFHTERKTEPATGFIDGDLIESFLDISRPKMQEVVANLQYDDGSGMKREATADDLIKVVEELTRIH
Experimental: (§1) Hep3B cells were maintained in EMEM medium, supplemented with penicillin/streptomycin and 10% Fetal Bovine Serum (FBS). Cells were seeded on 6- or 12-well plates, and the compounds to be tested were added at the desired concentration range. Final DMSO concentration was 0.25%. After 24 h incubation (37° C., 5% CO2), cells were harvested, washed and cell lysates were prepared using RIPA lysis buffer. The amount of protein was determined via BCA assay, and the appropriate quantity was then loaded on the precast gel for the protein separation. After primary and secondary Ab staining, the membranes were washed and signals developed. The densitometry analysis was implemented to obtain the numeric values used later in the protein level evaluation process. Densitometry values were normalized to the loading control and calculated as [%] of the DMSO control.

Kelly cells = assay: Cell viability CTG assay, Kelly; settings: 72 h, 0.001-50 μM, read-out: Kelly Geomean absolute IC50 by molecule, 72 H
Experimental: (§2) The effect of various compounds of the invention and various reference compounds on cell viability in various cell lines was investigated, using the Cell Viability—CTG Assay Protocol below. Hep3B, Kelly, H929, KG-1 and SNU-398 cells were maintained in respective cell medium (see Table 8, below). The cells were seeded on the 96-well or 384-white plates, and the compounds to be tested were added at the desired concentration range. Compounds are diluted in DMSO, and the DMSO concentration is kept constant at 0.25% v/v across the assay plate. After 72 h incubation (37° C., 5% CO2), CellTiter-Glo® Reagent (Promega/G7570) was added to the wells. Plates are shaken for 4 minutes and incubated for 8 minutes in the dark prior to reading luminescence (LU) by using the CLARIOstar Multimode Plate Reader. The signal is proportional to the amount of ATP, which is directly proportional to the number of cells present in the culture.
(§3) Luminescence (RLU) values were normalized to DMSO control. Dose response is assessed by non-linear regression and IC50 calculation with the average of technical duplicate of percentage inhibition. IC50 values are reported as absolute IC50 values, being the concentration of test compound at the intersection of the concentration-response curves with T/C=50%. For calculation of mean IC50 values the geometric mean is used.

Hep3B cells = assay: Cell viability CTG assay, Hep3B; settings: Homo sapiens, 72 h, 0.001-50 μM, read-out: Hep3B Geomean absolute IC50 by molecule, 72 H
Experimental: as §2, §3

SALL4 = target: T2, SALL4 (Homo sapiens, UniProt Q96SW2+Q9UJQ4); assay: SALL4 degradation assay, Kelly cell line (Western blot densitometry); settings: Kelly cells, 24 h; for % of SALL4 protein reduction: 100 nM, average from n ≥ 2 experiments
T2 construct: SALL4 degradation in the Kelly cell line was investigated; endogenous in cells; host or cells: Kelly
T2 sequence (Q9UJQ4 whole entry): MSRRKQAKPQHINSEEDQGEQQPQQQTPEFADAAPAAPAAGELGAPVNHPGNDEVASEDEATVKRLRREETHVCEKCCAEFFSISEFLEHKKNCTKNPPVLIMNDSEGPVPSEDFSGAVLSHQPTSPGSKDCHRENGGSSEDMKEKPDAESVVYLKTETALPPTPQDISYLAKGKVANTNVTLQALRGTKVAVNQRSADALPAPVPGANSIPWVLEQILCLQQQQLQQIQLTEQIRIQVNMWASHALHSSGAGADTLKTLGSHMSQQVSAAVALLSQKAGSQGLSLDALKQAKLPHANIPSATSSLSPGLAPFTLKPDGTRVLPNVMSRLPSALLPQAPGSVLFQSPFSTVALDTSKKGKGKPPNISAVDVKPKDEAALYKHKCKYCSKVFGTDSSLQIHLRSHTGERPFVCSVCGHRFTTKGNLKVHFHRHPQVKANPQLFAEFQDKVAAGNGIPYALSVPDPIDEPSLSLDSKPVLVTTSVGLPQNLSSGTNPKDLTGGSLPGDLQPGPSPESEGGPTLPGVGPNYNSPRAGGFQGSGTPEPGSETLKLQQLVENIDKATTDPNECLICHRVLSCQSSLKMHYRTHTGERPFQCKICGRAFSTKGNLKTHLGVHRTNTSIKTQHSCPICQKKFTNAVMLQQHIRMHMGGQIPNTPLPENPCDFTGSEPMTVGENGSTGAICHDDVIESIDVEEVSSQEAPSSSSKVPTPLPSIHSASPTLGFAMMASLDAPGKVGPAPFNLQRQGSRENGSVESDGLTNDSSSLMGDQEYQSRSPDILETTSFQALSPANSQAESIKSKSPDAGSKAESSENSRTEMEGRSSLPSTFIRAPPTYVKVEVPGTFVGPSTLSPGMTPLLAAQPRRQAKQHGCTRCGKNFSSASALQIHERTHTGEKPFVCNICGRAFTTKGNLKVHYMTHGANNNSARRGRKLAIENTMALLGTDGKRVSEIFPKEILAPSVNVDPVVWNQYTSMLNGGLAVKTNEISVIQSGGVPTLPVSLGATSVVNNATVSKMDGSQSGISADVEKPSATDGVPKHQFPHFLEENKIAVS
T2 sequence (Q96SW2 whole entry): as the sequence (Q96SW2 whole entry) above
T2 sequence (Q16531 whole entry partner): as the sequence (Q16531 whole entry partner) above
Experimental: as §1, with “Cells” for “Hep3B cells were maintained in EMEM medium, supplemented with penicillin/streptomycin and 10% Fetal Bovine Serum (FBS). Cells”, “Final DMSO concentration was 0.25%.” left out, “process.” for “process. Densitometry values were normalized to the loading control and calculated as [%] of the DMSO control.”

KG-1 cells = assay: Cell viability CTG assay, KG-1; settings: Homo sapiens; KG-1, 72 h, 0.001-50 μM; read-out: KG-1 Geomean absolute IC50 by molecule, 72 H
Experimental: as §2, §3

Ikaros (IKZF1) = target: T3, Ikaros (IKZF1) (Homo sapiens, UniProt Q13422+Q96SW2); assay: Ikaros degradation assay, H929 cell line; settings: H929 cells, 24 h; for inhibition at 10 µM / inhibition at 20 µM: NCI-H929, read-out: % of IKZF1 protein reduction
T3 construct: Ikaros degradation in the H929 cell line was investigated; endogenous in cells; host or cells: H929
T3 sequence (Q13422 whole entry): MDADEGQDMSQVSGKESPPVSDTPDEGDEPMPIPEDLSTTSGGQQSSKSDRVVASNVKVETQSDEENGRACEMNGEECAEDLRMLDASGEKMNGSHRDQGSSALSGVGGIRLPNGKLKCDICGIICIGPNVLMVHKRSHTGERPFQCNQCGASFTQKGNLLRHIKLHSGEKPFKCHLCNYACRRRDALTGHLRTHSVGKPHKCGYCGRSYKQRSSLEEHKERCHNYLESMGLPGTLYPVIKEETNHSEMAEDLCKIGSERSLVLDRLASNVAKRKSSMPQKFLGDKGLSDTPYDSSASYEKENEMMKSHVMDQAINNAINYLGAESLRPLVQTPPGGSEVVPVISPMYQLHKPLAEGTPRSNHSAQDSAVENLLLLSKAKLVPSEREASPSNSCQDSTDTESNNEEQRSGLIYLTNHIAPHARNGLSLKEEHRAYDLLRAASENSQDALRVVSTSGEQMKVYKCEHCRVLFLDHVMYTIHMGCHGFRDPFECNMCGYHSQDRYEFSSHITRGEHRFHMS
T3 sequence (Q96SW2 whole entry): as the sequence (Q96SW2 whole entry) above
T3 sequence (Q16531 whole entry partner): as the sequence (Q16531 whole entry partner) above
Experimental: as §1, with “Cells” for “Hep3B cells were maintained in EMEM medium, supplemented with penicillin/streptomycin and 10% Fetal Bovine Serum (FBS). Cells”, “Final DMSO concentration was 0.25%.” left out, “process.” for “process. Densitometry values were normalized to the loading control and calculated as [%] of the DMSO control.”

H929 cells = assay: Cell viability CTG assay, H929; design: key to Geomean absolute IC50 by molecule, 72 H: Inactive represents IC50 > 50 μM; C represents 50 μM ≥ IC50 > 5 μM; settings: H929, 72 h, 0.001-50 μM; for IC50: Homo sapiens, NCI-H929, read-out: Geomean absolute IC50 by molecule, 72 H
Experimental: as §2, §3

Aiolos (IKZF3) = target: T4, Aiolos (IKZF3) (Homo sapiens, UniProt Q96SW2+Q9UKT9); assay: Aiolos degradation assay, H929 cell line; settings: H929 cells, 20 μM, 24 h
T4 construct: Aiolos degradation in the H929 cell line was investigated; endogenous in cells; host or cells: H929
T4 sequence (Q9UKT9 whole entry): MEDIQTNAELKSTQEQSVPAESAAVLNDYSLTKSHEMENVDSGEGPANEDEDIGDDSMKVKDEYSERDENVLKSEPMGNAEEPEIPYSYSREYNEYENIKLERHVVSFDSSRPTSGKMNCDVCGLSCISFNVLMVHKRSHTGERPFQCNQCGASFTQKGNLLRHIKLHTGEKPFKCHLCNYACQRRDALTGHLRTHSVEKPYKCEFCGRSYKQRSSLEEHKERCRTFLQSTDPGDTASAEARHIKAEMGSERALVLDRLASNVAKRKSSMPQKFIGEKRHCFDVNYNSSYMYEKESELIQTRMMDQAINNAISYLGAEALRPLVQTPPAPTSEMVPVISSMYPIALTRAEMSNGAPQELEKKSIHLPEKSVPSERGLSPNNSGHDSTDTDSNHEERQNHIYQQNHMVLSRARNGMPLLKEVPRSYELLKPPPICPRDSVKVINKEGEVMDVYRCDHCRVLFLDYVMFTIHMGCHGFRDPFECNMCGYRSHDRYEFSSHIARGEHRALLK
T4 sequence (Q96SW2 whole entry): as the sequence (Q96SW2 whole entry) above
T4 sequence (Q16531 whole entry partner): as the sequence (Q16531 whole entry partner) above
Experimental: as §1, with “Cells” for “Hep3B cells were maintained in EMEM medium, supplemented with penicillin/streptomycin and 10% Fetal Bovine Serum (FBS). Cells”, “Final DMSO concentration was 0.25%.” left out, “process.” for “process. Densitometry values were normalized to the loading control and calculated as [%] of the DMSO control.”

Row | Structure (SMILES) | IC50 (Kelly cells) | IC50 (Hep3B cells) | % of SALL4 protein reduction (SALL4) | IC50 (KG-1 cells) | Geomean absolute IC50 by molecule, 72 H (H929 cells) | inhibition at 20 µM (Ikaros (IKZF1); 20 uM) | also measured
1 | [2H]C([2H])(N)c1ccc2c(c1)CN(C1CCC(=O)NC1=O)C2=O (stereo not shown) [Compound 2, 3-(5-(aminomethyl-d2)-1-oxoisoindolin-2-yl)piperidine-2,6-dione] | 100 to 1000 nM | ≤ 100 nM | >80% | 100 to 1000 nM |  |  | inhibition at 10 µM (GSPT1; 10 uM): 80 to 100%; inhibition at 10 µM (Ikaros (IKZF1); 10 uM): 0 to 24%; IC50 (H929 cells): 5000 to 50000 nM
2 | CC(=O)Oc1cc(C)cc(C)c1C(C)(C)CC(=O)NCc1ccc2c(c1)CN(C1CCC(=O)NC1=O)C2=O (stereo not shown) [Compound 21, 2-[1-({[2-(2,6-dioxopiperidin-3-yl)-1-oxo-2,3-dihydro-1H-isoindol-5-yl]methyl}carbamoyl)-2-methylpropan-2-yl]-3,5-dimethylphenyl acetate] | 1000 to 5000 nM | ≤ 100 nM | >80% | 1000 to 5000 nM | Inactive |  | 
3 | CC(=O)Oc1ccc(COC(=O)NCc2ccc3c(c2)CN(C2CCC(=O)NC2=O)C3=O)cc1 (stereo not shown) [Compound 22, 4-(((((2-(2,6-dioxopiperidin-3-yl)-1-oxoisoindolin-5-yl)methyl)carbamoyl)oxy)methyl)phenyl acetate] | 100 to 1000 nM | ≤ 100 nM |  | ≤ 100 nM |  |  | IC50 (H929 cells): 5000 to 50000 nM
4 | CC(OC(=O)NCc1ccc2c(c1)CN(C1CCC(=O)NC1=O)C2=O)OC(=O)C(C)C (stereo not shown) [Compound 23, 1-((((2-(2,6-dioxopiperidin-3-yl)-1-oxoisoindolin-5-yl)methyl)carbamoyl)oxy)ethyl isobutyrate] |  | ≤ 100 nM | >80% |  | Inactive | 0 to 24% | 
5 | Cc1oc(=O)oc1COC(=O)NCc1ccc2c(c1)CN(C1CCC(=O)NC1=O)C2=O (stereo not shown) [Compound 24, (5-methyl-2-oxo-2H-1,3-dioxol-4-yl)methyl N-{[2-(2,6-dioxopiperidin-3-yl)-1-oxo-2,3-dihydro-1H-isoindol-5-yl]methyl}carbamate] | 1000 to 5000 nM | ≤ 100 nM |  | ≤ 100 nM | Inactive | 0 to 24% | 
6 | NCC(=O)NCc1ccc2c(c1)CN(C1CCC(=O)NC1=O)C2=O (stereo not shown) [Compound 25, 2-amino-N-((2-(2,6-dioxopiperidin-3-yl)-1-oxoisoindolin-5-yl)methyl)acetamide] | 1000 to 5000 nM | 100 to 1000 nM |  | 1000 to 5000 nM | Inactive | 0 to 24% | 
7 | N[C@@H](Cc1cnc[nH]1)C(=O)NCc1ccc2c(c1)CN([C@@H]1CCC(=O)NC1=O)C2=O [Compound 27, (S)-2-amino-N-((2-((R)-2,6-dioxopiperidin-3-yl)-1-oxoisoindolin-5-yl)methyl)-3-(1H-imidazol-4-yl)propanamide] | 100 to 1000 nM | 100 to 1000 nM | >80% | 100 to 1000 nM | Inactive |  | inhibition at 1 µM (GSPT1): 80 to 100%; % of IKZF3 protein reduction (Aiolos (IKZF3)): C (C represents 0-24% of IKZF1 protein reduction); inhibition at 10 µM (Ikaros (IKZF1); 10 uM): 0 to 24%
8 | N[C@@H](Cc1cnc[nH]1)C(=O)NCc1ccc2c(c1)CN([C@H]1CCC(=O)NC1=O)C2=O [Compound 28, (S)-2-amino-N-((2-((S)-2,6-dioxopiperidin-3-yl)-1-oxoisoindolin-5-yl)methyl)-3-(1H-imidazol-4-yl)propanamide] | 100 to 1000 nM | 100 to 1000 nM |  | 100 to 1000 nM | Inactive |  | inhibition at 1 µM (GSPT1): 80 to 100%; % of IKZF3 protein reduction (Aiolos (IKZF3)): C (C represents 0-24% of IKZF1 protein reduction); inhibition at 10 µM (Ikaros (IKZF1); 10 uM): 0 to 24%
9 | CC(C)(C)OC(=O)N[C@@H](Cc1cnc[nH]1)C(=O)NCc1ccc2c(c1)CN([C@@H]1CCC(=O)NC1=O)C2=O [Compound 29, tert-butyl ((S)-1-(((2-((R)-2,6-dioxopiperidin-3-yl)-1-oxoisoindolin-5-yl)methyl)amino)-3-(1H-imidazol-4-yl)-1-oxopropan-2-yl)carbamate] |  |  |  |  |  | 0 to 24% | % of IKZF3 protein reduction (Aiolos (IKZF3)): C (C represents 0-24% of IKZF1 protein reduction)
10 | CC(C)C(NC(=O)OC(C)(C)C)C(=O)NCc1ccc2c(c1)CN(C1CCC(=O)NC1=O)C2=O (stereo not shown) [Compound 31, tert-butyl (1-(((2-(2,6-dioxopiperidin-3-yl)-1-oxoisoindolin-5-yl)methyl)amino)-3-methyl-1-oxobutan-2-yl)carbamate] | 1000 to 5000 nM | 100 to 1000 nM |  | 1000 to 5000 nM | Inactive | 0 to 24% | 
11 | NC(Cc1c[nH]c2ccccc12)C(=O)NCc1ccc2c(c1)CN(C1CCC(=O)NC1=O)C2=O (stereo not shown) [Compound 37, 2-amino-N-((2-(2,6-dioxopiperidin-3-yl)-1-oxoisoindolin-5-yl)methyl)-3-(1H-indol-3-yl)propanamide] | 100 to 1000 nM | ≤ 100 nM |  | 100 to 1000 nM | Inactive | 0 to 24% | 
12 | C[C@@H](O)[C@H](N)C(=O)NCc1ccc2c(c1)CN(C1CCC(=O)NC1=O)C2=O (stereo partly drawn) [Compound 39, (2S,3R)-2-amino-N-((2-(2,6-dioxopiperidin-3-yl)-1-oxoisoindolin-5-yl)methyl)-3-hydroxybutanamide] | 1000 to 5000 nM | 100 to 1000 nM |  | 1000 to 5000 nM | Inactive | 0 to 24% | 
13 | CCCCCC(=O)NCc1ccc2c(c1)CN(C1CCC(=O)NC1=O)C2=O (stereo not shown) [Compound 100, reference compound] |  |  |  |  |  |  | % of IKZF3 protein reduction (Aiolos (IKZF3); numeric values): 52%; inhibition at 10 µM (Ikaros (IKZF1); 10 uM, numeric values): 52%
14 | Nc1cccc2c1C(=O)N(C1CCC(=O)NC1=O)C2=O (stereo not shown) [Pomalidomide, pomalidomide, reference compound] |  |  |  |  |  |  | % of IKZF3 protein reduction (Aiolos (IKZF3); numeric values): 87%; % of IKZF1 protein reduction (Ikaros (IKZF1); 10 uM, numeric values): 86%; % of IKZF1 protein reduction (Ikaros (IKZF1); 20 uM, numeric values): 91%; IC50 (H929 cells; numeric values): 61 nM
15 | O=C1CCC(N2C(=O)c3ccccc3C2=O)C(=O)N1 (stereo not shown) [Thalidomide, reference compound] |  |  | 53% |  |  |  | degradation of SALL4 (SALL4; 0.01 μM, FIG. 1): lower activity
